Laboratory results reported in PMC13221243, “Crosstalk Between Lysine Lactylation and Acetylation Regulates Lactate Dehydrogenase in Streptococcus mutans” (Genomics, Proteomics & Bioinformatics, 2025).

Key:
ActA [1] = target: T1, ActA (Streptococcus mutans, UniProt Q8DVT1); test: in vitro acylation of LDH, anti-Kac Western blot; format: biochemical; conditions: acyl acceptor recombinant LDH; pH 7.5, 10 mM MgCl2, 37°C, 3 h
T1 construct: gene SMU_386; recombinant His-tagged from pET28a, E. coli BL21(DE3), nickel purified
T1 sequence (Q8DVT1 1-144): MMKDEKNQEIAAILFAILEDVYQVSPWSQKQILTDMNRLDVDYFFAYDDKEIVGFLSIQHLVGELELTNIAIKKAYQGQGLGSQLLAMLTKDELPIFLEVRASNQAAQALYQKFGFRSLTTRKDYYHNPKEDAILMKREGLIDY

ActA [2] = target: T1, ActA; test: in vitro acylation of LDH, anti-Kla Western blot; format: biochemical; conditions: acyl acceptor recombinant LDH; pH 7.5, 10 mM MgCl2, 37°C, 3 h

Row | Structure (SMILES) | in vitro acylation of LDH, anti-Kac Western blot (ActA [1]) | in vitro acylation of LDH, anti-Kla Western blot (ActA [2])
1 | CC(=O)SCCNC(=O)CCNC(=O)[C@H](O)C(C)(C)COP(=O)(O)OP(=O)(O)OC[C@H]1O[C@@H](n2cnc3c(N)ncnc32)[C@H](O)[C@@H]1OP(=O)(O)O [Ac-CoA] | However, ActA significantly increased the levels of Kla and Kac in LDH enzymatically. | 
2 | CC(O)C(=O)SCCNC(=O)CCNC(=O)[C@H](O)C(C)(C)COP(=O)(O)OP(=O)(O)OC[C@H]1O[C@@H](n2cnc3c(N)ncnc32)[C@H](O)[C@@H]1OP(=O)(O)O (some centres unmarked) [La-CoA] |  | However, ActA significantly increased the levels of Kla and Kac in LDH enzymatically.
